Measured values taken from PubChem BioAssay AID1259411 (Chemical Carcinogenesis Research Information System (CCRIS), 2018).
Activity calls are given as the source filed them. How the calls were made is not given here.

Test system: rodent carcinogenicity bioassays, tumor incidence
Experiment: CCRIS carcinogenicity studies
Summary of the method: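 Archive of carcinogenicity, mutagenicity, tumor promotion and tumor inhibition results drawn from journals, NCI reports and other sources, expert-reviewed; covers 1985-2011 and is no longer updated.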

## CNNCc1ccc(C(=O)NC(C)C)cc1
Species: MOUSE, Strain/Sex: B6C3F1/FEMALE, Route: INTRAPERITONEAL, Dose: 0, 6, 12 MG/KG IN BUFFERED SALINE 3/WK FOR 52 WK (STUDY DURATION: 67-85 WK), Dose: 0, 6, 12 MG/KG IN BUFFERED SALINE 3/WK FOR 52 WK (STUDY DURATION: 67-85 WK), Tumor Site: Type of Lesion: LUNG: ALVEOLAR/BRONCHIOLAR ADENOMA, HEMATOPOIETIC SYSTEM (LEUKEMIA), LYMPHATIC SYSTEM: LYMPHOMA, UTERUS: ADENOCARCINOMA, Tumor Site: Type of Lesion: LUNG: ALVEOLAR/BRONCHIOLAR ADENOMA, HEMATOPOIETIC SYSTEM (LEUKEMIA), LYMPHATIC SYSTEM: LYMPHOMA, UTERUS: ADENOCARCINOMA
  carcinogen call: active; positive
Species: MOUSE, Strain/Sex: B6C3F1/MALE, Route: INTRAPERITONEAL, Dose: 0, 6, 12 MG/KG IN BUFFERED SALINE 3/WK FOR 52 WK (STUDY DURATION: 67-85 WK), Dose: 0, 6, 12 MG/KG IN BUFFERED SALINE 3/WK FOR 52 WK (STUDY DURATION: 67-85 WK), Tumor Site: Type of Lesion: LUNG: ALVEOLAR/BRONCHIOLAR ADENOMA OR CARCINOMA, HEMATOPOIETIC SYSTEM (LEUKEMIA), LYMPHATIC SYSTEM: LYMPHOMA, BRAIN: OLF, Tumor Site: Type of Lesion: LUNG: ALVEOLAR/BRONCHIOLAR ADENOMA OR CARCINOMA, HEMATOPOIETIC SYSTEM (LEUKEMIA), LYMPHATIC SYSTEM: LYMPHOMA, BRAIN: OLF
  carcinogen call: active; positive
Species: RAT, Strain/Sex: BR46/MALE, Route: INTRAVENOUS, Dose: 24 MG/KG 1/WK FOR 52 WK, Tumor Site: Type of Lesion: MULTIPLE SITES: BENIGN TUMOR OR MALIGNANT TUMOR
  carcinogen call: active; positive
Species: RAT, Strain/Sex: SPRAGUE-DAWLEY/FEMALE, Route: INTRAPERITONEAL, Dose: 0, 15, 30 MG/KG IN BUFFERED SALINE 3/WK FOR 26 WK (STUDY DURATION: 31-86 WK), Dose: 0, 15, 30 MG/KG IN BUFFERED SALINE 3/WK FOR 26 WK (STUDY DURATION: 31-86 WK), Tumor Site: Type of Lesion: LYMPHATIC SYSTEM: MALIGNANT LYMPHOMA, MAMMARY GLAND: ADENOMA (NOS) OR ADENOCARCINOMA (NOS), BRAIN (CEREBRUM): OLFACTORY, Tumor Site: Type of Lesion: LYMPHATIC SYSTEM: MALIGNANT LYMPHOMA, MAMMARY GLAND: ADENOMA (NOS) OR ADENOCARCINOMA (NOS), BRAIN (CEREBRUM): OLFACTORY
  carcinogen call: active; positive
Species: RAT, Strain/Sex: SPRAGUE-DAWLEY/MALE, Route: INTRAPERITONEAL, Dose: 0, 15, 30 MG/KG IN BUFFERED SALINE 3/WK FOR 26 WK (STUDY DURATION: 43-86 WK), Dose: 0, 15, 30 MG/KG IN BUFFERED SALINE 3/WK FOR 26 WK (STUDY DURATION: 43-86 WK), Tumor Site: Type of Lesion: HEMATOPOIETIC SYSTEM (LEUKEMIA), LYMPHATIC SYSTEM: MALIGNANT LYMPHOMA, MAMMARY GLAND: ADENOMA (NOS) OR ADENOSARCOMA (NOS, Tumor Site: Type of Lesion: HEMATOPOIETIC SYSTEM (LEUKEMIA), LYMPHATIC SYSTEM: MALIGNANT LYMPHOMA, MAMMARY GLAND: ADENOMA (NOS) OR ADENOSARCOMA (NOS
  carcinogen call: active; positive

## Nc1ccc(N)cc1
Species: MOUSE, Strain/Sex: B6C3F1/FEMALE, Route: ORAL, Dose: 0, 625, 1250 PPM IN DIET, Dose: 0, 625, 1250 PPM IN DIET
  carcinogen call: inactive; negative
Species: MOUSE, Strain/Sex: B6C3F1/MALE, Route: ORAL, Dose: 0, 625, 1250 PPM IN DIET, Dose: 0, 625, 1250 PPM IN DIET
  carcinogen call: inactive; negative
Species: RAT, Strain/Sex: F344/FEMALE, Route: ORAL, Dose: 0, 625, 1250 PPM IN DIET, Dose: 0, 625, 1250 PPM IN DIET
  carcinogen call: inactive; negative
Species: RAT, Strain/Sex: F344/MALE, Route: ORAL, Dose: 0, 625, 1250 PPM IN DIET, Dose: 0, 625, 1250 PPM IN DIET
  carcinogen call: inactive; negative

## C=CC(=C)CCC=C(C)C
Species: Mouse, Strain/Sex: B6C3F1 / Female (50/Group), Route: Oral, Dose: 0, 0.25, 0.5, 1 g/kg in corn oil, by gavage, 5 d/wk for 104-105 wk, Dose: 0, 0.25, 0.5, 1 g/kg in corn oil, by gavage, 5 d/wk for 104-105 wk
  carcinogen call: inactive; negative. (authors describe results as equivocal based on incidences of hepatoce
Species: Mouse, Strain/Sex: B6C3F1 / Male (50/Group), Route: Oral, Dose: 0, 0.25, 0.5, 1 g/kg in corn oil, by gavage, 5 d/wk for 104-105 wk, Dose: 0, 0.25, 0.5, 1 g/kg in corn oil, by gavage, 5 d/wk for 104-105 wk, Tumor Site: Type of Lesion: Liver: hepatocellular adenoma (26/50, 41/50, 43/50), hepatocellular carcinoma (14/50, 20/50, 28/50), hepatocellular aden, Tumor Site: Type of Lesion: Liver: hepatocellular adenoma (26/50, 41/50, 43/50), hepatocellular carcinoma (14/50, 20/50, 28/50), hepatocellular aden
  carcinogen call: active; positive (authors describe as clear evidence)
Species: Rat, Strain/Sex: F344/N / Female (50/Group), Route: Oral, Dose: 0, 0.25, 0.5, 1 g/kg in corn oil, by gavage, 5 d/wk for 105 wk, Dose: 0, 0.25, 0.5, 1 g/kg in corn oil, by gavage, 5 d/wk for 105 wk
  carcinogen call: inactive; negative. (authors describe findings as equivocal based on renal tubule adenoma
Species: Rat, Strain/Sex: F344/N / Male (50/Group), Route: Oral, Dose: 0, 0.25, 0.5, 1 g/kg in corn oil, by gavage, 5 d/wk for 105 wk, Dose: 0, 0.25, 0.5, 1 g/kg in corn oil, by gavage, 5 d/wk for 105 wk, Tumor Site: Type of Lesion: Kidney: renal tubule adenoma (standard evaluation - 0/50, 4/50, 8/50, standard and extended evaluations combined - 0/50
  carcinogen call: active; positive (authors describe as clear evidence)

## CN(CCCC(O)c1cccnc1)N=O (stereo not drawn)
Species: MOUSE, Strain/Sex: STRAIN-A/FEMALE, Route: INTRAPERITONEAL, Dose: 0, 10, 50 UMOL TOTAL DOSE ADMINISTERED IN SUBDOSES 3/WK FOR 7 WK (STUDY DURATION: 37 WK), Dose: 0, 10, 50 UMOL TOTAL DOSE ADMINISTERED IN SUBDOSES 3/WK FOR 7 WK (STUDY DURATION: 37 WK), Tumor Site: Type of Lesion: LUNG: TUMOR
  carcinogen call: active; positive
Species: RAT, Strain/Sex: F344/MALE, Route: ORAL, Dose: 0, 5 PPM IN DRINKING WATER FOR DURATION OF STUDY (TOTAL DOSE: 0; 0.69 MMOL/KG) (STUDY DURATION: 112 WK), Dose: 0, 5 PPM IN DRINKING WATER FOR DURATION OF STUDY (TOTAL DOSE: 0; 0.69 MMOL/KG) (STUDY DURATION: 112 WK), Tumor Site: Type of Lesion: LUNG: ADENOCARCINOMA, ADENOSQUAMOUS CARCINOMA, EXOCRINE PANCREAS: ACINAR ADENOMA OR ACINAR ADENOCARCINOMA OR DUCTAL ADEN
  carcinogen call: active; positive

## Cc1cc2ccccc2c2cc([N+](=O)[O-])c3ccccc3c12
Species: MOUSE, Strain/Sex: SWISS/FEMALE, Route: INTRAPERITONEAL, Dose: 0, 100 NMOL (TOTAL DOSE) ADMINISTERED 1/7, 2/7 AND 4/7 ON DAY 1, 8 AND 15 RESPECTIVELY (STUDY DURATION: 32 WK), Tumor Site: Type of Lesion: LUNG: TUMOR
  carcinogen call: active; positive
Species: MOUSE, Strain/Sex: SWISS/MALE, Route: INTRAPERITONEAL, Dose: 0, 100 NMOL (TOTAL DOSE) ADMINISTERED 1/7, 2/7 AND 4/7 ON DAY 1, 8 AND 15 RESPECTIVELY (STUDY DURATION: 32 WK), Tumor Site: Type of Lesion: LIVER: TUMOR, LUNG: TUMOR
  carcinogen call: active; positive

## C=CCN(CC=C)N=O
Species: RAT, Strain/Sex: BDIX/FEMALE, Route: ORAL, Dose: 0, 20, 40, 80 MG/KG IN DRINKING WATER FOR DURATION OF STUDY (STUDY DURATION: LIFE TIME), Dose: 0, 20, 40, 80 MG/KG IN DRINKING WATER FOR DURATION OF STUDY (STUDY DURATION: LIFE TIME), Tumor Site: Type of Lesion: NASAL/PARANASAL CAVITY: TUMORS
  carcinogen call: active; positive
Species: RAT, Strain/Sex: BDIX/MALE, Route: ORAL, Dose: 0, 20, 40, 80 MG/KG IN DRINKING WATER FOR DURATION OF STUDY (STUDY DURATION: LIFE TIME), Dose: 0, 20, 40, 80 MG/KG IN DRINKING WATER FOR DURATION OF STUDY (STUDY DURATION: LIFE TIME), Tumor Site: Type of Lesion: NASAL/PARANASAL CAVITY: TUMORS
  carcinogen call: active; positive

## O=C1CCCO1
Species: MOUSE, Strain/Sex: B6C3F1/FEMALE, Route: GAVAGE, Dose: 0, 262, 525 MG/KG IN CORN OIL 5 D/WK FOR 103 WK (STUDY DURATION: 2 YR), Dose: 0, 262, 525 MG/KG IN CORN OIL 5 D/WK FOR 103 WK (STUDY DURATION: 2 YR)
  carcinogen call: inactive; negative
Species: MOUSE, Strain/Sex: B6C3F1/FEMALE, Route: GAVAGE, Dose: 0, 262, 525 MG/KG IN CORN OIL 5 D/WK FOR 103 WK (STUDY DURATION: 105 WK), Dose: 0, 262, 525 MG/KG IN CORN OIL 5 D/WK FOR 103 WK (STUDY DURATION: 105 WK), Tumor Site: Type of Lesion: ADRENAL MEDULLA: BENIGN OR MALIGNANT PHEOCHROMOCYTOMA
  carcinogen call: equivocal
Species: RAT, Strain/Sex: F344/FEMALE, Route: GAVAGE, Dose: 0, 225, 450 MG/KG IN CORN OIL 5 D/WK FOR 103 WK (STUDY DURATION: 2 YR), Dose: 0, 225, 450 MG/KG IN CORN OIL 5 D/WK FOR 103 WK (STUDY DURATION: 2 YR)
  carcinogen call: inactive; negative
Species: RAT, Strain/Sex: F344/MALE, Route: GAVAGE, Dose: 0, 112, 225 MG/KG IN CORN OIL 5 D/WK FOR 103 WK (STUDY DURATION: 2 YR), Dose: 0, 112, 225 MG/KG IN CORN OIL 5 D/WK FOR 103 WK (STUDY DURATION: 2 YR)
  carcinogen call: inactive; negative
